Data reported in the NIST ThermoML archive (doi:10.1021/je034102r).
Numbers after ± are expanded uncertainties.

Assay: molar heat capacity at constant pressure
Conditions: 101.33 kPa, Liquid, heat bridge-scanning calorimeter

CCCCn1cc[n+](C)c1.F[P-](F)(F)(F)(F)F [1-butyl-3-methylimidazolium hexafluorophosphate]
molar heat capacity at constant pressure (495.63 K): 502.43 ± 9.9 J/K/mol | molar heat capacity at constant pressure (495.77 K): 502.43 ± 9.9 J/K/mol | molar heat capacity at constant pressure (495.91 K): 502.43 ± 9.9 J/K/mol | molar heat capacity at constant pressure (496.05 K): 502.72 ± 9.9 J/K/mol | molar heat capacity at constant pressure (496.18 K): 503.86 ± 9.9 J/K/mol | molar heat capacity at constant pressure (496.32 K): 504.14 ± 9.9 J/K/mol | molar heat capacity at constant pressure (496.46 K): 504.14 ± 9.9 J/K/mol | molar heat capacity at constant pressure (496.6 K): 503.29 ± 9.9 J/K/mol | molar heat capacity at constant pressure (496.9 K): 505.56 ± 10 J/K/mol | molar heat capacity at constant pressure (497.04 K): 506.13 ± 10 J/K/mol | molar heat capacity at constant pressure (497.17 K): 506.13 ± 10 J/K/mol | molar heat capacity at constant pressure (497.31 K): 504.99 ± 10 J/K/mol | molar heat capacity at constant pressure (497.45 K): 504.42 ± 10 J/K/mol | molar heat capacity at constant pressure (497.58 K): 504.14 ± 9.9 J/K/mol | molar heat capacity at constant pressure (497.72 K): 503.57 ± 9.9 J/K/mol | molar heat capacity at constant pressure (497.86 K): 503.57 ± 9.9 J/K/mol | molar heat capacity at constant pressure (498 K): 503.57 ± 9.9 J/K/mol | molar heat capacity at constant pressure (498.13 K): 503.29 ± 9.9 J/K/mol | molar heat capacity at constant pressure (498.27 K): 503.86 ± 9.9 J/K/mol | molar heat capacity at constant pressure (498.57 K): 504.71 ± 10 J/K/mol | molar heat capacity at constant pressure (498.7 K): 504.42 ± 10 J/K/mol | molar heat capacity at constant pressure (498.84 K): 505.84 ± 10 J/K/mol | molar heat capacity at constant pressure (498.98 K): 507.27 ± 10 J/K/mol | molar heat capacity at constant pressure (499.11 K): 506.98 ± 10 J/K/mol | molar heat capacity at constant pressure (499.25 K): 505.84 ± 10 J/K/mol | molar heat capacity at constant pressure (499.39 K): 504.99 ± 10 J/K/mol | molar heat capacity at constant pressure (499.52 K): 504.71 ± 10 J/K/mol | molar heat capacity at constant pressure (499.66 K): 504.42 ± 10 J/K/mol | molar heat capacity at constant pressure (499.96 K): 504.14 ± 9.9 J/K/mol | molar heat capacity at constant pressure (500.1 K): 504.42 ± 10 J/K/mol | molar heat capacity at constant pressure (500.24 K): 504.42 ± 10 J/K/mol | molar heat capacity at constant pressure (500.37 K): 504.42 ± 10 J/K/mol | molar heat capacity at constant pressure (500.51 K): 504.71 ± 10 J/K/mol | molar heat capacity at constant pressure (500.65 K): 505.56 ± 10 J/K/mol | molar heat capacity at constant pressure (500.79 K): 506.13 ± 10 J/K/mol | molar heat capacity at constant pressure (500.92 K): 506.41 ± 10 J/K/mol | molar heat capacity at constant pressure (501.06 K): 506.13 ± 10 J/K/mol | molar heat capacity at constant pressure (501.2 K): 506.41 ± 10 J/K/mol | molar heat capacity at constant pressure (501.34 K): 506.7 ± 10 J/K/mol | molar heat capacity at constant pressure (501.63 K): 505.84 ± 10 J/K/mol | molar heat capacity at constant pressure (501.78 K): 506.98 ± 10 J/K/mol | molar heat capacity at constant pressure (501.92 K): 507.55 ± 10 J/K/mol | molar heat capacity at constant pressure (502.06 K): 506.41 ± 10 J/K/mol | molar heat capacity at constant pressure (502.19 K): 505.84 ± 10 J/K/mol | molar heat capacity at constant pressure (502.33 K): 505.56 ± 10 J/K/mol | molar heat capacity at constant pressure (502.47 K): 505.28 ± 10 J/K/mol | molar heat capacity at constant pressure (502.61 K): 504.99 ± 10 J/K/mol | molar heat capacity at constant pressure (502.74 K): 505.28 ± 10 J/K/mol | molar heat capacity at constant pressure (503.05 K): 505.28 ± 10 J/K/mol | molar heat capacity at constant pressure (503.18 K): 504.99 ± 10 J/K/mol | molar heat capacity at constant pressure (503.32 K): 505.28 ± 10 J/K/mol | molar heat capacity at constant pressure (503.46 K): 505.28 ± 10 J/K/mol | molar heat capacity at constant pressure (503.59 K): 505.28 ± 10 J/K/mol | molar heat capacity at constant pressure (503.73 K): 505.84 ± 10 J/K/mol | molar heat capacity at constant pressure (503.87 K): 505.84 ± 10 J/K/mol | molar heat capacity at constant pressure (504.01 K): 505.84 ± 10 J/K/mol | molar heat capacity at constant pressure (504.14 K): 506.13 ± 10 J/K/mol | molar heat capacity at constant pressure (504.28 K): 507.55 ± 10 J/K/mol | molar heat capacity at constant pressure (504.42 K): 505.84 ± 10 J/K/mol | molar heat capacity at constant pressure (504.71 K): 505.84 ± 10 J/K/mol | molar heat capacity at constant pressure (504.85 K): 505.84 ± 10 J/K/mol | molar heat capacity at constant pressure (504.99 K): 506.13 ± 10 J/K/mol | molar heat capacity at constant pressure (505.13 K): 506.41 ± 10 J/K/mol | molar heat capacity at constant pressure (505.26 K): 506.7 ± 10 J/K/mol | molar heat capacity at constant pressure (505.4 K): 506.41 ± 10 J/K/mol | molar heat capacity at constant pressure (505.54 K): 506.98 ± 10 J/K/mol | molar heat capacity at constant pressure (505.68 K): 506.98 ± 10 J/K/mol | molar heat capacity at constant pressure (505.81 K): 505.84 ± 10 J/K/mol | molar heat capacity at constant pressure (506.11 K): 505.84 ± 10 J/K/mol | molar heat capacity at constant pressure (506.25 K): 506.13 ± 10 J/K/mol | molar heat capacity at constant pressure (506.39 K): 507.83 ± 10 J/K/mol | molar heat capacity at constant pressure (506.53 K): 507.27 ± 10 J/K/mol | molar heat capacity at constant pressure (506.66 K): 506.98 ± 10 J/K/mol | molar heat capacity at constant pressure (506.8 K): 506.98 ± 10 J/K/mol | molar heat capacity at constant pressure (506.94 K): 506.41 ± 10 J/K/mol | molar heat capacity at constant pressure (507.08 K): 506.13 ± 10 J/K/mol | molar heat capacity at constant pressure (507.21 K): 506.13 ± 10 J/K/mol | molar heat capacity at constant pressure (507.35 K): 506.7 ± 10 J/K/mol | molar heat capacity at constant pressure (507.49 K): 506.98 ± 10 J/K/mol | molar heat capacity at constant pressure (507.78 K): 507.27 ± 10 J/K/mol | molar heat capacity at constant pressure (507.92 K): 508.12 ± 10 J/K/mol | molar heat capacity at constant pressure (508.06 K): 508.12 ± 10 J/K/mol | molar heat capacity at constant pressure (508.21 K): 508.12 ± 10 J/K/mol | molar heat capacity at constant pressure (508.35 K): 507.27 ± 10 J/K/mol | molar heat capacity at constant pressure (508.48 K): 506.98 ± 10 J/K/mol | molar heat capacity at constant pressure (508.62 K): 506.98 ± 10 J/K/mol | molar heat capacity at constant pressure (508.76 K): 506.98 ± 10 J/K/mol | molar heat capacity at constant pressure (508.9 K): 507.27 ± 10 J/K/mol | molar heat capacity at constant pressure (509.2 K): 506.7 ± 10 J/K/mol | molar heat capacity at constant pressure (509.33 K): 506.98 ± 10 J/K/mol | molar heat capacity at constant pressure (509.47 K): 507.83 ± 10 J/K/mol | molar heat capacity at constant pressure (509.61 K): 508.69 ± 10 J/K/mol | molar heat capacity at constant pressure (509.75 K): 509.25 ± 10 J/K/mol | molar heat capacity at constant pressure (509.88 K): 509.25 ± 10 J/K/mol | molar heat capacity at constant pressure (510.02 K): 507.55 ± 10 J/K/mol
